Data from ChEMBL document CHEMBL5291721, “A preclinical secondary pharmacology resource illuminates target-adverse drug reaction associations of marketed drugs” (Nat Commun, 2023).

What was measured:
[1] = target: Motilin receptor (Homo sapiens, UniProt O43193)
[2] = target: Cannabinoid receptor 1 (Homo sapiens, UniProt P21554); format: functional, cell-based
[3] = target: T1, Progesterone receptor (Homo sapiens, UniProt P06401); format: functional
T1 sequence (P06401 whole entry): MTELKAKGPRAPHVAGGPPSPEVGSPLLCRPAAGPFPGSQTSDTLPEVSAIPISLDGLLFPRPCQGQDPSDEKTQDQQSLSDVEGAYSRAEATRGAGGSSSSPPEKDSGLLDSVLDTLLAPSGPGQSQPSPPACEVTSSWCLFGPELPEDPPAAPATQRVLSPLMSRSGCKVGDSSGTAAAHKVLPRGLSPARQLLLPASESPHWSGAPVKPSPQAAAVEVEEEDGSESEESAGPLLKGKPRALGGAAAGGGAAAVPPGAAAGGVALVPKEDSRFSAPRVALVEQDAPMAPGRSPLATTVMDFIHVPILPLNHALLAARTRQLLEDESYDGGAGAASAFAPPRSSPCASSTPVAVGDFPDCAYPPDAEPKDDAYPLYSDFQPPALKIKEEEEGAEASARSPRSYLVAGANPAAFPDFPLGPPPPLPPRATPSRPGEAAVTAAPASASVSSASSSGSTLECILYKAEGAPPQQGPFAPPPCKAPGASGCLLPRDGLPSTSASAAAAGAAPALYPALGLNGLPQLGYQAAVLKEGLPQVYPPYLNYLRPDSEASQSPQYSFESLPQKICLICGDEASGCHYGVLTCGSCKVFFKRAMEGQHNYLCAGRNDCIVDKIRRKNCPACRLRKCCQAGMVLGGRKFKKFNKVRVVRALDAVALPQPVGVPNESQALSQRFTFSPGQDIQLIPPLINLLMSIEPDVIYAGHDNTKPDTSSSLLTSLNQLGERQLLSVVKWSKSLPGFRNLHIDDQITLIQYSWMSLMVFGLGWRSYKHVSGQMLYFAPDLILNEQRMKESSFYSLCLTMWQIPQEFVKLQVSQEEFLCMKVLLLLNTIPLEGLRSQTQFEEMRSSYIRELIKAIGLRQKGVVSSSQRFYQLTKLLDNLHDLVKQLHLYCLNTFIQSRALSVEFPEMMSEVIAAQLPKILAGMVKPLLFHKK

[4] = target: D(3) dopamine receptor (Homo sapiens, UniProt P35462)
[5] = target: T2, 5-hydroxytryptamine receptor 3A (Homo sapiens, UniProt P46098); format: functional
T2 sequence (P46098 whole entry): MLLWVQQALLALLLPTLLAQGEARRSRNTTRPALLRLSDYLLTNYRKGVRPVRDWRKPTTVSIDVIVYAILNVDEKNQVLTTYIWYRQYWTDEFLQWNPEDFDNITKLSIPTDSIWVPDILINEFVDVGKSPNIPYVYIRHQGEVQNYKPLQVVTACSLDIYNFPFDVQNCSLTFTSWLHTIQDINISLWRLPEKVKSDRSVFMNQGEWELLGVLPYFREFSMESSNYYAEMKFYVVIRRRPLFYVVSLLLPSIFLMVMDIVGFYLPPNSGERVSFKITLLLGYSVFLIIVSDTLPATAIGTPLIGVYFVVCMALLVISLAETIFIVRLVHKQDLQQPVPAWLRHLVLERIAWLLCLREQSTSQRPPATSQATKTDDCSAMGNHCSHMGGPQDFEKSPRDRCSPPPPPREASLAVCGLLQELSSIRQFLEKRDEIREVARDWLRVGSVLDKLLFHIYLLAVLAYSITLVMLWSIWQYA

[6] = target: Glutamate receptor ionotropic, NMDA 1 (Rattus norvegicus, UniProt P35439)
[7] = target: 5-hydroxytryptamine receptor 2A (Homo sapiens, UniProt P28223); format: functional, cell-based
[8] = target: Sodium-dependent noradrenaline transporter (Homo sapiens, UniProt P23975)
[9] = target: Melanocortin receptor 3 (Homo sapiens, UniProt P41968)
[10] = target: T3, Endothelin-1 receptor (Homo sapiens, UniProt P25101)
T3 sequence (P25101 whole entry): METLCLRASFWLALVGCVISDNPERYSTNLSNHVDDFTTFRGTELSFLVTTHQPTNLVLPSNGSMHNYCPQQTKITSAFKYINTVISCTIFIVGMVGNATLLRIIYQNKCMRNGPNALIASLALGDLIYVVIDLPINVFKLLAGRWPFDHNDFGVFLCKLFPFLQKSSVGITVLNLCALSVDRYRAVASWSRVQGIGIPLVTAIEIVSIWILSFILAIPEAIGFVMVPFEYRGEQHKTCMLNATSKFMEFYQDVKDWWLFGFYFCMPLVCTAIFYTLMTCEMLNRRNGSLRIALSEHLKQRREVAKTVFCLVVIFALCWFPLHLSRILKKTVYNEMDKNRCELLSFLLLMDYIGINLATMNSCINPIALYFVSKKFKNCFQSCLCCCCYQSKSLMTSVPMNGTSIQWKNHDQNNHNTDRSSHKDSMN

[11] = target: Beta-2 adrenergic receptor (Homo sapiens, UniProt P07550)
[12] = target: Voltage-dependent L-type calcium channel subunit alpha-1C (Rattus norvegicus, UniProt P22002); format: functional
[13] = target: T4, Estrogen receptor (Homo sapiens, UniProt P03372)
T4 sequence (P03372 whole entry): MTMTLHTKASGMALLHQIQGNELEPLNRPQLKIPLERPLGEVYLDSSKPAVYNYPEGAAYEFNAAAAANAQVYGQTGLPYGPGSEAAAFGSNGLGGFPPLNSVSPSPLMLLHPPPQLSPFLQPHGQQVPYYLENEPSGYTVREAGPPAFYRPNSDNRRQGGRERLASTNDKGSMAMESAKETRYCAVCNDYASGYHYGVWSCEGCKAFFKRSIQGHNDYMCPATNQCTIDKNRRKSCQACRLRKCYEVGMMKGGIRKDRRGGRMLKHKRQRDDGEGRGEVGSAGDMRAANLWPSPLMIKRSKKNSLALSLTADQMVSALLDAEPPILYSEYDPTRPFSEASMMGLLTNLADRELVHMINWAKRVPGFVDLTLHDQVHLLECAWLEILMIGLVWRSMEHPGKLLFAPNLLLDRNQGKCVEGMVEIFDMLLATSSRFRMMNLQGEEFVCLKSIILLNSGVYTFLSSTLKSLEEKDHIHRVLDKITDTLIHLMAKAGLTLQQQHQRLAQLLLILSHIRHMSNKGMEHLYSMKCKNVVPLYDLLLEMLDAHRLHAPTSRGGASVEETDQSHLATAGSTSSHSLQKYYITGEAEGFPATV
Note: assay procedure not described here.

Sequence of D(3) dopamine receptor (P35462 whole entry): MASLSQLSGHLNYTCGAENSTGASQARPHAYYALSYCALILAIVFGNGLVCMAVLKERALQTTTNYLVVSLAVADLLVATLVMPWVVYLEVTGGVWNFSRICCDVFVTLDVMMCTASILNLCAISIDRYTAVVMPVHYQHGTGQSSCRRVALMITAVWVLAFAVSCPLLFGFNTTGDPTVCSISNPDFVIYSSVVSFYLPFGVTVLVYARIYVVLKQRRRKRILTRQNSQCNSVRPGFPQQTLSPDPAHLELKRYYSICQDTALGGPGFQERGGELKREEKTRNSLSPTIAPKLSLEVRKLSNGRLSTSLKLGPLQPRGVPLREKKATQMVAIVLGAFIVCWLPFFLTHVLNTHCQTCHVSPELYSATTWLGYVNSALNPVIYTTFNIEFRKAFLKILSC
Sequence of Motilin receptor (O43193 whole entry): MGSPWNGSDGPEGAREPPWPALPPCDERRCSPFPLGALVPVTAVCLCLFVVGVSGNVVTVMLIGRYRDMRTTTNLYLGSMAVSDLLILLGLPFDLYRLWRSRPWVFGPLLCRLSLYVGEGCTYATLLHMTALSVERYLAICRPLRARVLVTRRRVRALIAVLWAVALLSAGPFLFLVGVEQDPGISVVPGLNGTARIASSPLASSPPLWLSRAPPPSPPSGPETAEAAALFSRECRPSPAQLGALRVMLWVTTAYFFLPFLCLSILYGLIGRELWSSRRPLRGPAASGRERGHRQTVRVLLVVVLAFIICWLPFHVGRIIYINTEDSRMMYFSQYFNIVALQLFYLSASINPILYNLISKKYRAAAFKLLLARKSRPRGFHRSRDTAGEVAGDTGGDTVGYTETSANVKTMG
Sequence of Melanocortin receptor 3 (P41968 whole entry): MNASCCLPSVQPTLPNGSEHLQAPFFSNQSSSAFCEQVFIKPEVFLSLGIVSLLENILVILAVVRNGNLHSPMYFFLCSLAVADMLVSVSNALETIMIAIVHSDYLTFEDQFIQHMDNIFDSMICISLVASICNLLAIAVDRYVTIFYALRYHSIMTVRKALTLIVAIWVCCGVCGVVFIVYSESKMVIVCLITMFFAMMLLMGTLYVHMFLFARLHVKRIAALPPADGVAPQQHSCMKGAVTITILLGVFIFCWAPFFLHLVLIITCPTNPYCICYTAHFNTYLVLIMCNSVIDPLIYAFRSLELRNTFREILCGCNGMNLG
Sequence of Cannabinoid receptor 1 (P21554 whole entry): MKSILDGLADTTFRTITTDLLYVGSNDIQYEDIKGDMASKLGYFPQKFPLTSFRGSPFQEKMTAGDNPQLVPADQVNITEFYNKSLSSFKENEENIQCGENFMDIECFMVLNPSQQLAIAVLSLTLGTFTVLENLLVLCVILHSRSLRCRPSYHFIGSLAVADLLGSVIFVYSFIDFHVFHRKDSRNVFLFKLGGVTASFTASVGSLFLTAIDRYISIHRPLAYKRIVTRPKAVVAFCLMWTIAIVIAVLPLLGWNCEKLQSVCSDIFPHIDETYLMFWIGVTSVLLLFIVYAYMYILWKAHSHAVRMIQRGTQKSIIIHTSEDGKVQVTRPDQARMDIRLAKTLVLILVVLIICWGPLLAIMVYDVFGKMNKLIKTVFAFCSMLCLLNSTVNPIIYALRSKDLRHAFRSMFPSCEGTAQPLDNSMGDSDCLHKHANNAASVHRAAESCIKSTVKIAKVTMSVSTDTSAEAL
Sequence of 5-hydroxytryptamine receptor 2A (P28223 whole entry): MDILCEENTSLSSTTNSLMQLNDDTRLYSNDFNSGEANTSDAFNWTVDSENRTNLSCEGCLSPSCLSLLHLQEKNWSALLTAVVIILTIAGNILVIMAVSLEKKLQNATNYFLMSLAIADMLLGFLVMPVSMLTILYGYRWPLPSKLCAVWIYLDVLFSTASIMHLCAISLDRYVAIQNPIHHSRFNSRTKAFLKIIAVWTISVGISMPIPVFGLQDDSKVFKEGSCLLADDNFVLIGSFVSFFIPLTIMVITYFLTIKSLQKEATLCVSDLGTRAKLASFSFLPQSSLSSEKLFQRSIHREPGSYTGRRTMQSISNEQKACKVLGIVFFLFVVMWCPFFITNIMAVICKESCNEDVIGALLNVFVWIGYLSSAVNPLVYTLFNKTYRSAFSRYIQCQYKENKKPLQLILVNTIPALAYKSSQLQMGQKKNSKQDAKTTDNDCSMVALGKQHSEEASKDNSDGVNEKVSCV
Sequence of Beta-2 adrenergic receptor (P07550 whole entry): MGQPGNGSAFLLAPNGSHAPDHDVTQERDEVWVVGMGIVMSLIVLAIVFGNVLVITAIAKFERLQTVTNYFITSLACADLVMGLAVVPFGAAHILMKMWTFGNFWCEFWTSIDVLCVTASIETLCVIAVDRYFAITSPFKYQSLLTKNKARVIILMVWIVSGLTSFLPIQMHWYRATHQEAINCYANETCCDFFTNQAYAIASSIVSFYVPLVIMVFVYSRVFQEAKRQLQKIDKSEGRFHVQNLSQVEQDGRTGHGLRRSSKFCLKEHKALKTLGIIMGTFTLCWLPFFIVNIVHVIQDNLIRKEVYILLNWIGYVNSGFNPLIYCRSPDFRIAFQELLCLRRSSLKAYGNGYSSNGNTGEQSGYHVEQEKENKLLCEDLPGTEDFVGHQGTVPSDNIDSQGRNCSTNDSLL
Sequence of Voltage-dependent L-type calcium channel subunit alpha-1C (P22002 whole entry): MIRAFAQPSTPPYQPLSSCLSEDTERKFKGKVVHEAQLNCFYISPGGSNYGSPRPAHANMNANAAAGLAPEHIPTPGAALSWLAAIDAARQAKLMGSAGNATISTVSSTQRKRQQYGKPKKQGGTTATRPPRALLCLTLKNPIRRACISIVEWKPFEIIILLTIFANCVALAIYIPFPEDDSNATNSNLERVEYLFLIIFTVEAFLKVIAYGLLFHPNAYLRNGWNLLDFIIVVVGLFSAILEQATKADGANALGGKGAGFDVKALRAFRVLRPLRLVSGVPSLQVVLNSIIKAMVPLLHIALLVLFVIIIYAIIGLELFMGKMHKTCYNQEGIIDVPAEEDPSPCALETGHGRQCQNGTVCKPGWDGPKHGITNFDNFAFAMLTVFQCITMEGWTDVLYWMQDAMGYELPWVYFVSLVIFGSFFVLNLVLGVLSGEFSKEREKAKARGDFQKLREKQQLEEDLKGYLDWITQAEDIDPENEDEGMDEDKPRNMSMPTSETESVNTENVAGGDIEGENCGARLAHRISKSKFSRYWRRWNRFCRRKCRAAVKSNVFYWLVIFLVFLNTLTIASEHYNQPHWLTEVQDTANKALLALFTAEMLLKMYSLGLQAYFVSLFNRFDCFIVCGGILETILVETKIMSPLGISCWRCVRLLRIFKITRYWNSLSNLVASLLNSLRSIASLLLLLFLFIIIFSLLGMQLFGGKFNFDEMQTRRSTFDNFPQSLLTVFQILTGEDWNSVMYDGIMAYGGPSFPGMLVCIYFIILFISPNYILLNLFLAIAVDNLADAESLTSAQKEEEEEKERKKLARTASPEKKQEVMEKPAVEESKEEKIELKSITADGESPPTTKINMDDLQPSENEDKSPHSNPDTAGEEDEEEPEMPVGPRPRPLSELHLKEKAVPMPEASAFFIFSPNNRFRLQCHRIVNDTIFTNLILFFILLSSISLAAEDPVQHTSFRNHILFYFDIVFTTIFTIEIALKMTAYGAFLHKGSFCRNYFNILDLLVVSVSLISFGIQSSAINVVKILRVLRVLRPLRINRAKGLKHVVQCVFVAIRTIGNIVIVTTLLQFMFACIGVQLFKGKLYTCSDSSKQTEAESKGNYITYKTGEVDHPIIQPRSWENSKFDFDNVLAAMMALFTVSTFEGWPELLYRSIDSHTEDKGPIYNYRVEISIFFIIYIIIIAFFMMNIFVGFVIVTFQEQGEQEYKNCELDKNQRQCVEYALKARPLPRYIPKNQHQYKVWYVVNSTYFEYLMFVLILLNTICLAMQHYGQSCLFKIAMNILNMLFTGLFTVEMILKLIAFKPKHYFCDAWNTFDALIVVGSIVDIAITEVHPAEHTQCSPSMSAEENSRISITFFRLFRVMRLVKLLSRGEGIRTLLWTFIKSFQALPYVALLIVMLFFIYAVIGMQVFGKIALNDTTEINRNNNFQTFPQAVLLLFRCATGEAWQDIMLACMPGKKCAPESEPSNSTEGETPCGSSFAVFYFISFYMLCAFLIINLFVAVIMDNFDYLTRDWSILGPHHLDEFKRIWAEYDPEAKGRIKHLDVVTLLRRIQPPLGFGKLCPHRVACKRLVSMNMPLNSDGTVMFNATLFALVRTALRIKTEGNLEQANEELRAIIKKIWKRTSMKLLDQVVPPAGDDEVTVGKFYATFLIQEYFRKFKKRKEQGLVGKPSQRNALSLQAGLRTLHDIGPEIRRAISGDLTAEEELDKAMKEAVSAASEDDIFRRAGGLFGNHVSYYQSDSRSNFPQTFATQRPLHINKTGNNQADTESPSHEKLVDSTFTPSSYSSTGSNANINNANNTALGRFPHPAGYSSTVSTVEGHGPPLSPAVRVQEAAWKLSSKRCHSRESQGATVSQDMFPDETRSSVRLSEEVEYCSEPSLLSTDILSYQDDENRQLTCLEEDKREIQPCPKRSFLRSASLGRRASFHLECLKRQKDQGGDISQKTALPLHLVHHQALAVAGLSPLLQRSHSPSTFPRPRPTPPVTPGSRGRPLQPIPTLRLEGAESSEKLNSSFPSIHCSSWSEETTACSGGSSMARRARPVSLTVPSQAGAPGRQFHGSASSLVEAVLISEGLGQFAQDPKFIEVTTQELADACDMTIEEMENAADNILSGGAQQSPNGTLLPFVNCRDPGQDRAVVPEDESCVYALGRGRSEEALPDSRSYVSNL

Row | SMILES | AC50 [1] [µM] | AC50 [2] [µM] | AC50 [3] [µM] | AC50 [4] [µM] | AC50 [5] [µM] | AC50 [6] [µM] | AC50 [7] [µM] | AC50 [8] [µM] | AC50 [9] [µM] | AC50 [10] [µM] | AC50 [11] [µM] | AC50 [12] [µM] | AC50 [13] [µM]
1 | C=C1CC[C@@]2(O)[C@H]3Cc4ccc(O)c5c4[C@@]2(CCN3CC2CC2)[C@H]1O5 | > 30 | > 30 | > 30 | > 30 | > 30 | > 30 | > 30 | > 30 | > 30 | > 30 | – | – | –
2 | Nc1ncnc2c1ncn2[C@@H]1O[C@H](COP(=O)(O)O)[C@@H](O)[C@H]1O [ADENOSINE PHOSPHATE] | > 30 | > 30 | > 30 | > 30 | > 30 | > 30 | > 30 | > 30 | > 30 | > 30 | > 30 | – | –
3 | CCCC(CCC)C(=O)O[C@H]1C[C@H]2CC[C@@H](C1)[N+]2(C)C [ANISOTROPINE] | > 30 | > 30 | > 30 | > 30 | 28 | > 30 | > 30 | – | > 30 | > 30 | – | – | –
4 | CN1CCc2cccc3c2[C@H]1Cc1ccc(O)c(O)c1-3 [APOMORPHINE] | > 10 | > 30 | – | – | – | > 10 | > 30 | > 30 | > 30 | > 30 | > 10 | > 10 | 1.47
5 | CC(C)C(=O)OCC(=O)[C@@]12O[C@H](C3CCCCC3)O[C@@H]1C[C@H]1[C@@H]3CCC4=CC(=O)C=C[C@]4(C)[C@H]3[C@@H](O)C[C@@]12C [CICLESONIDE] | > 10 | > 30 | 7.1 | > 30 | > 30 | > 10 | > 10 | > 10 | > 10 | – | > 10 | > 10 | > 30
6 | CCOC(=O)[C@H](CCc1ccccc1)N[C@H]1CCCN2CCC[C@@H](C(=O)O)N2C1=O [CILAZAPRIL] | > 30 | > 30 | > 30 | > 30 | > 30 | > 30 | > 30 | > 30 | > 30 | > 30 | > 30 | > 30 | –
7 | [H]/N=C(/N)c1ccc(NCc2nc3cc(C(=O)N(CCC(=O)O)c4ccccn4)ccc3n2C)cc1 [DABIGATRAN] | > 30 | > 30 | > 30 | > 30 | > 30 | > 30 | > 30 | > 30 | > 30 | > 30 | – | – | –
8 | CCC1(C2=CCCCCC2)C(=O)NC(=O)NC1=O [HEPTABARBITAL] | > 10 | > 30 | > 10 | > 30 | > 30 | > 10 | > 10 | > 10 | > 10 | – | > 10 | > 10 | > 10
9 | CC/C=C\C/C=C\C/C=C\CCCCCCCC(=O)O [LINOLENIC ACID] | > 30 | > 30 | – | > 30 | > 30 | > 30 | > 30 | > 30 | > 30 | > 30 | – | – | –
10 | C[C@H]1C[C@@H]2[C@H]([C@@H](O)C[C@@]3(C)[C@H]2CC[C@]3(O)C(=O)COC(=O)CCC(=O)O)[C@@]2(C)C=CC(=O)C=C12 [METHYLPREDNISOLONE HEMISUCCINATE] | > 30 | > 30 | > 30 | > 30 | > 30 | > 30 | > 30 | > 30 | > 30 | > 30 | – | – | –
11 | CCCCC(C)(O)C/C=C/[C@H]1[C@H](O)CC(=O)[C@@H]1CCCCCCC(=O)OC (stereo partly drawn) [MISOPROSTOL] | > 30 | > 30 | > 30 | > 30 | > 30 | > 30 | > 30 | > 30 | > 30 | > 30 | – | – | –
12 | O=C(O)CCCc1ccccc1 [PHENYLBUTANOIC ACID] | > 10 | – | – | > 30 | > 30 | > 30 | > 30 | > 10 | > 10 | > 30 | > 10 | > 30 | –
13 | Cc1nc2ccc(CN(C)c3ccc(C(=O)N[C@@H](CCC(=O)O)C(=O)O)s3)cc2c(=O)[nH]1 [RALTITREXED] | > 30 | – | > 30 | > 30 | > 30 | > 30 | > 30 | > 30 | > 30 | > 30 | > 30 | > 30 | –
14 | Cc1c(Cl)cccc1Nc1ccccc1C(=O)O [TOLFENAMIC ACID] | > 30 | > 30 | > 30 | > 30 | > 30 | > 30 | > 30 | – | > 30 | > 30 | – | > 30 | –
15 | CN1CCN(C(=O)OC2c3nccnc3C(=O)N2c2ccc(Cl)cn2)CC1 (stereo not drawn) [ZOPICLONE] | > 30 | > 30 | > 30 | > 10 | > 10 | > 10 | > 30 | > 30 | > 30 | > 30 | > 10 | > 10 | –
